From patent US20230219931A1, “FUSED HETEROARYL HYDROXAMATES AS STING AGONISTS” (BiSiChem Co., Ltd., priority 2022, published 2023)
Where a name gives a salt, the structure may show the parent alone.

Tested on: ISG reporter activity in THP1-Dual cell
Assay: ISG reporter assay
Type: cell-based
Conditions: Homo sapiens, compounds incubated with cells for 24 hours, QUANTI-Blue, absorbance at 655 nm
Method: [Worded in the source for another cell line; this cell line is reported under the same test.] THP1-Blue cells (cat. no. thp-isg) were purchased from InvivoGen (Sandiago, USA). Penicillin—streptomycin (cat. no. L0022-100), Fetal Bovine Serum (FBS) (cat. no. S1480-500) and Roswell Park Memorial Institute (RPMI) 1640 media (cat. L0498-500) were purchased from biowest (Nuaille, France). Zeocin (cat. no. ant-zn-OS) and Normocin (cat. no. ant-nr-1) were purchased from InvivoGen (Sandiago, USA). QUANTI-Blue™ (cat. no. rep-qbs) was purchased from InvivoGen. THP1-Blue cells were cultured in RPMI 1640 medium with 10% heat-inactivated FBS, 100 μg/ml Normocin, 100 μg/ml Zeocin and 100 U/ml-100 μg/ml penicillin-streptomycin. The cells were incubated at 37° C. in a humidified atmosphere of 5% CO2.
THP1-Blue cells were seeded at 5×10^4 cells/well (90 μl/well). 10 μl of compounds were added to the cells and incubated for 24 hours. 20 μl of cell culture supernatant was dispensed new 96-well plate (cat. no. 30096) with 180 μl of QUANTI-Blue™ solution and incubated for 15 minutes at 37° C. The absorbance was measured by Varioskan Lux (Thermofisher Scientific, USA) at 655 nm.

Compound | EC50 [nM]
CCn1nc(C)cc1C(=O)Nc1nc2cc(C(N)=O)cc(OC)c2n1C/C=C/Cn1c(NC(=O)c2cc(C)nn2CC)nc2cc(C(N)=O)cc(OCC#CC3CCN(C(=O)N4CCOCC4)CC3)c21 [Example 15, (E)-1-(4-(5-carbamoyl-2-(1-ethyl-3-methyl-1H-pyrazole-5-carboxamido)-7-((3-(1-(morpholine-4-carbonyl)piperidin-4-yl)prop-2-yn-1-yl)oxy)-1H-benzo[d]imidazol-1-yl)but-2-en-1-yl)-2-(1-ethyl-3-methyl-1H-pyrazole-5-carboxamido)-7-methoxy-1H-benzo[d]imidazole-5-carboxamide] | < 50
CCn1nc(C)cc1C(=O)Nc1nc2cc(C(N)=O)cc(OC)c2n1C/C=C/Cn1c(NC(=O)c2cc(C)nn2CC)nc2cc(C(N)=O)cc(OCC#CC3CCN(C(=O)N4CCN(C(=O)OC(C)(C)C)CC4)CC3)c21 [Example 16, tert-butyl (E)-4-(4-(3-((5-carbamoyl-1-(4-(5-carbamoyl-2-(1-ethyl-3-methyl-1H-pyrazole-5-carboxamido)-7-methoxy-1H-benzo[d]imidazol-1-yl)but-2-en-1-yl)-2-(1-ethyl-3-methyl-1H-pyrazole-5-carboxamido)-1H-benzo[d]imidazol-7-yl)oxy)prop-1-yn-1-yl)piperidine-1-carbonyl)piperazine-1-carboxylate] | < 50
CCn1nc(C)cc1C(=O)Nc1nc2cc(C(N)=O)cc(OC)c2n1C/C=C/Cn1c(NC(=O)c2cc(C)nn2CC)nc2cc(C(N)=O)cc(OCC#CC3CCN(C(=O)N4CCNCC4)CC3)c21 [Example 17, (E)-1-(4-(5-carbamoyl-2-(1-ethyl-3-methyl-1H-pyrazole-5-carboxamido)-7-((3-(1-(piperazine-1-carbonyl)piperidin-4-yl)prop-2-yn-1-yl)oxy)-1H-benzo[d]imidazol-1-yl)but-2-en-1-yl)-2-(1-ethyl-3-methyl-1H-pyrazole-5-carboxamido)-7-methoxy-1H-benzo[d]imidazole-5-carboxamide hydrochloride] | < 50
CCn1nc(C)cc1C(=O)Nc1nc2cc(C(N)=O)cc(OC)c2n1C/C=C/Cn1c(NC(=O)c2cc(C)nn2CC)nc2cc(C(N)=O)cc(OCC#CC3CCN(C(=O)N4CCC(O)CC4)CC3)c21 [Example 18, (E)-1-(4-(5-carbamoyl-2-(1-ethyl-3-methyl-1H-pyrazole-5-carboxamido)-7-((3-(1-(4-hydroxypiperidine-1-carbonyl)piperidin-4-yl)prop-2-yn-1-yl)oxy)-1H-benzo[d]imidazol-1-yl)but-2-en-1-yl)-2-(1-ethyl-3-methyl-1H-pyrazole-5-carboxamido)-7-methoxy-1H-benzo[d]imidazole-5-carboxamide] | < 50
CCn1nc(C)cc1C(=O)Nc1nc2cc(C(N)=O)cc(OC)c2n1C/C=C/Cn1c(NC(=O)c2cc(C)nn2CC)nc2cc(C(N)=O)cc(OCC#CC3CCN(S(C)(=O)=O)CC3)c21 [Example 19, (E)-1-(4-(5-carbamoyl-2-(1-ethyl-3-methyl-1H-pyrazole-5-carboxamido)-7-((3-(1-(methylsulfonyl)piperidin-4-yl)prop-2-yn-1-yl)oxy)-1H-benzo[d]imidazol-1-yl)but-2-en-1-yl)-2-(1-ethyl-3-methyl-1H-pyrazole-5-carboxamido)-7-methoxy-1H-benzo[d]imidazole-5-carboxamide] | < 50
CCn1nc(C)cc1C(=O)Nc1nc2cc(C(N)=O)cc(OC)c2n1C/C=C/Cn1c(NC(=O)c2cc(C)nn2CC)nc2cc(C(N)=O)cc(OCC#CC3CCN(S(=O)(=O)C(C)C)CC3)c21 [Example 20, (E)-1-(4-(5-carbamoyl-2-(1-ethyl-3-methyl-1H-pyrazole-5-carboxamido)-7-((3-(1-(isopropylsulfonyl)piperidin-4-yl)prop-2-yn-1-yl)oxy)-1H-benzo[d]imidazol-1-yl)but-2-en-1-yl)-2-(1-ethyl-3-methyl-1H-pyrazole-5-carboxamido)-7-methoxy-1H-benzo[d]imidazole-5-carboxamide] | < 50
CCn1nc(C)cc1C(=O)Nc1nc2cc(C(N)=O)cc(OC)c2n1C/C=C/Cn1c(NC(=O)c2cc(C)nn2CC)nc2cc(C(N)=O)cc(OCC#CC3CCN(S(=O)(=O)C4CC4)CC3)c21 [Example 21, (E)-1-(4-(5-carbamoyl-2-(1-ethyl-3-methyl-1H-pyrazole-5-carboxamido)-7-methoxy-1H-benzo[d]imidazol-1-yl)but-2-en-1-yl)-7-((3-(1-(cyclopropylsulfonyl)piperidin-4-yl)prop-2-yn-1-yl)oxy)-2-(1-ethyl-3-methyl-1H-pyrazole-5-carboxamido)-1H-benzo[d]imidazole-5-carboxamide] | < 50
CCn1nc(C)cc1C(=O)Nc1nc2cc(C(N)=O)cc(OC)c2n1C/C=C/Cn1c(NC(=O)c2cc(C)nn2CC)nc2cc(C(N)=O)cc(OCC#CC3CCN(S(=O)(=O)C4CCCC4)CC3)c21 [Example 22, (E)-1-(4-(5-carbamoyl-2-(1-ethyl-3-methyl-1H-pyrazole-5-carboxamido)-7-methoxy-1H-benzo[d]imidazol-1-yl)but-2-en-1-yl)-7-((3-(1-(cyclopentylsulfonyl)piperidin-4-yl)prop-2-yn-1-yl)oxy)-2-(1-ethyl-3-methyl-1H-pyrazole-5-carboxamido)-1H-benzo[d]imidazole-5-carboxamide] | < 50
CCn1nc(C)cc1C(=O)Nc1nc2cc(C(N)=O)cc(OC)c2n1C/C=C/Cn1c(NC(=O)c2cc(C)nn2CC)nc2cc(C(N)=O)cc(OCC#CC3CCN(S(=O)(=O)c4ccc(C)cc4)CC3)c21 [Example 23, (E)-1-(4-(5-carbamoyl-2-(1-ethyl-3-methyl-1H-pyrazole-5-carboxamido)-7-((3-(1-tosylpiperidin-4-yl)prop-2-yn-1-yl)oxy)-1H-benzo[d]imidazol-1-yl)but-2-en-1-yl)-2-(1-ethyl-3-methyl-1H-pyrazole-5-carboxamido)-7-methoxy-1H-benzo[d]imidazole-5-carboxamide] | < 50
CCn1nc(C)cc1C(=O)Nc1nc2cc(C(N)=O)cc(OC)c2n1C/C=C/Cn1c(NC(=O)c2cc(C)nn2CC)nc2cc(C(N)=O)cc(OCC#CC3CCN(S(=O)(=O)N(C)C)CC3)c21 [Example 24, (E)-1-(4-(5-carbamoyl-2-(1-ethyl-3-methyl-1H-pyrazole-5-carboxamido)-7-methoxy-1H-benzo[d]imidazol-1-yl)but-2-en-1-yl)-7-((3-(1-(N,N-dimethylsulfamoyl)piperidin-4-yl)prop-2-yn-1-yl)oxy)-2-(1-ethyl-3-methyl-1H-pyrazole-5-carboxamido)-1H-benzo[d]imidazole-5-carboxamide] | < 50
CCN(CC)S(=O)(=O)N1CCC(C#CCOc2cc(C(N)=O)cc3nc(NC(=O)c4cc(C)nn4CC)n(C/C=C/Cn4c(NC(=O)c5cc(C)nn5CC)nc5cc(C(N)=O)cc(OC)c54)c23)CC1 [Example 25, (E)-1-(4-(5-carbamoyl-2-(1-ethyl-3-methyl-1H-pyrazole-5-carboxamido)-7-methoxy-1H-benzo[d]imidazol-1-yl)but-2-en-1-yl)-7-((3-(1-(N,N-diethylsulfamoyl)piperidin-4-yl)prop-2-yn-1-yl)oxy)-2-(1-ethyl-3-methyl-1H-pyrazole-5-carboxamido)-1H-benzo[d]imidazole-5-carboxamide] | < 50
CCn1nc(C)cc1C(=O)Nc1nc2cc(C(N)=O)cc(OC)c2n1C/C=C/Cn1c(NC(=O)c2cc(C)nn2CC)nc2cc(C(N)=O)cc(OCC#CC3CCN(S(=O)(=O)N4CCCC4)CC3)c21 [Example 26, (E)-1-(4-(5-carbamoyl-2-(1-ethyl-3-methyl-1H-pyrazole-5-carboxamido)-7-((3-(1-(pyrrolidin-1-ylsulfonyl)piperidin-4-yl)prop-2-yn-1-yl)oxy)-1H-benzo[d]imidazol-1-yl)but-2-en-1-yl)-2-(1-ethyl-3-methyl-1H-pyrazole-5-carboxamido)-7-methoxy-1H-benzo[d]imidazole-5-carboxamide] | < 50
CCn1nc(C)cc1C(=O)Nc1nc2cc(C(N)=O)cc(OC)c2n1C/C=C/Cn1c(NC(=O)c2cc(C)nn2CC)nc2cc(C(N)=O)cc(OCC#CC3CCN(S(=O)(=O)N4CCOCC4)CC3)c21 [Example 27, (E)-1-(4-(5-carbamoyl-2-(1-ethyl-3-methyl-1H-pyrazole-5-carboxamido)-7-((3-(1-(morpholinosulfonyl)piperidin-4-yl)prop-2-yn-1-yl)oxy)-1H-benzo[d]imidazol-1-yl)but-2-en-1-yl)-2-(1-ethyl-3-methyl-1H-pyrazole-5-carboxamido)-7-methoxy-1H-benzo[d]imidazole-5-carboxamide] | < 50
CCn1nc(C)cc1C(=O)Nc1nc2cc(C(N)=O)cc(OC)c2n1C/C=C/Cn1c(NC(=O)c2cc(C)nn2CC)nc2cc(C(N)=O)cc(OCC#CC3CCN(S(=O)(=O)N4CCN(C(=O)OC(C)(C)C)CC4)CC3)c21 [Example 28, tert-butyl (E)-4-((4-(3-((5-carbamoyl-1-(4-(5-carbamoyl-2-(1-ethyl-3-methyl-1H-pyrazole-5-carboxamido)-7-methoxy-1H-benzo[d]imidazol-1-yl)but-2-en-1-yl)-2-(1-ethyl-3-methyl-1H-pyrazole-5-carboxamido)-1H-benzo[d]imidazol-7-yl)oxy)prop-1-yn-1-yl)piperidin-1-yl)sulfonyl)piperazine-1-carboxylate] | < 50
